# Tests used:
# [1] = Body weight after icv CoPP in rats; assay type: in vivo, rat; details: 48 hours after icv injection, 6 animals per group
# Description: All animal handling was approved by and done in accordance with the guidelines and requirements of the University of Vermont Institutional Animal Care Use Committee. Adult male Sprague-Dawley rats (mycoplasma free; 200 g) were purchased from Charles River (Quebec, Canada) and housed in an air-conditioned (23+1° C.) room with lights on for 12 hours daily (starting at 6:00 a.m.) in the University of Vermont Animal Facility. Rats were housed singly in regular cages with free access to Purina Rat Chow (RMH 3000) and water for at least five days prior to surgery. Stereotactic surgery was used to implant chronic indwelling stainless steel cannulae into the third ventricle of the brain under fentanyl/droperidol anesthesia. Coordinates for cannula placement were obtained from the Konig Klippel stereotactic surgery atlas; with the nose bar 2.4 mm below the intraaural line and the vertical micrometer gantry tilted 9 degrees towards the animal, the coordinates were 4.9 mm dorsal to the intraaural line, 5 mm anterior to the intraaural line and 1.1 mm lateral to the midline. A minimum of 5 days later, animals were injected icv with CoPP (which was dissolved in 0.2 N NaOH and the pH adjusted to 7.4-7.8) or other experimental compounds. […] Because of the repetitive dosing regimens, animals were trained for six days prior to the first injection to ready them for injections without anesthesia. […]
# [2] = test system: creatine transporter (CrT) protein; assay: Creatine transporter immunoreactivity in rat brain; assay type: in vivo; details: 4 hours after icv 0.4 um/kg; dorsomedial, supramamillary nucleus, III ventricle, habenular (p<0.05), paraventricular thalamic areas; FIG. 7
# Description: In experiments involving immunohistochemistry, animals were injected icv with CoPP 0.4 umol/kg body weight or with vehicle. Four hours after injection, animals were anesthetized with halothane and perfused through the left ventricle of the heart, initially with oxygenated Krebs buffer and then with ˜350 ml of 4% paraformaldehyde in 0.1M NaCl, pH 7.4 phosphate buffered saline (PBS). Brains were extracted from the skull, hypothalamic blocks dissected (by coronal cuts anterior and posterior to hypothalamic landmarks) and post-fixed in 4% paraformaldehyde solution at 4 degrees C. overnight. The following day, the blocks were transferred to 30% sucrose and incubated overnight at 4 degrees C. […] They were allowed to dry, rewetted with PBS buffer and cover-slipped with Citifluor (Ted Pella, Reading, Calif.). Creatine transporter (CrT) and Fos studies were performed using indirect fluorescence visualization with rabbit anti-CrT (1:40; Alpha Diagnostics, San Antonio, Tex.) with goat anti-rabbit Cy3 (Jackson Immuno Research Laboratories, Inc., West Grove, Pa.) and rabbit c-Fos-AB5 (1:2,000; Oncogene Research Products, Cambridge, Mass.) with goat anti-rabbit Cy3 (1:500; Jackson Immuno Research Laboratories, Inc.) as the secondary antibody. […] Areas of interest were quantitated on each section in which they appeared and averaged to yield means+SEM of percentages. […]
smiles,measurement,setting,value
"C=Cc1c(C)c2cc3[nH]c(cc4nc(cc5nc(cc1[nH]2)C(C)=C5CCC(=O)[O-])C(CCC(=O)[O-])=C4C)c(C)c3C=C.[Co+2] [CoPP, Cobaltic protoporphyrin IX]",Δ Weight,[1],−29%
same,immunoreactive (IR) CrT compared to controls and fasted controls,[2],increased

# Source: patent publication US20090305225A1, “Inhibition of Creatine Uptake to Promote Weight Loss” (priority 2005, published 2009)
